Reference: patent US20250144049A1, “METHODS, COMPOSITIONS, AND USES RELATED TO THE TREATMENT AND PREVENTION OF LEIGH SYNDROME” (Stealth BioTherapeutics Inc., priority 2023, published 2025)

Experiments:
[1] = system: reverse electron transfer (RET) from Complex II to Complex I in isolated murine brain mitochondria; test: Reverse electron transfer (RET) assay, H2O2 (ROS) production; assay type: biochemical, mouse
Method: For mitochondria isolation, brains were dissected at a local vivarium (Explora, MA, USA) from C57BL/6 mice that were supplied by The Jackson Laboratory (Maine, USA). Brains were collected on ice in cold mitochondria isolation buffer (225 mM mannitol, 75 mM sucrose, 5 mM HEPES, 1 mM EGTA, pH 7.4). In a glass petri dish, brains were mixed with a few drops of buffer and cut into small pieces resembling a mash using scissors. Mitochondrial isolation buffer was added at 1:10-1:20 (w/v) and tissue mash was transferred to a glass Dounce tissue homogenizer and further homogenized with 10-15 strokes. Mash was centrifuged at 1,000×g for 10 min to pellet and remove cellular debris, etc. Supernatant was transferred into 2.0 mL tubes and centrifuged at 10,000×g. The mitochondria pellet was resuspended in the desired amount of miR05 buffer (Oroboros, Innsbruck, Austria) and added directly to the Oroboros oxygraph-2K (Oroboros, Innsbruck, Austria) for an experiment or maintained on ice for up to 4 hours.
All high-resolution respirometry experiments were conducted using the Oroboros O2k-Fluorespirometer (Oroboros, Innsbruck, Austria). The Oroboros O2k-Fluorespirometer was calibrated daily using the air calibration protocol on DatLab 7.4 (Oroboros, Innsbruck, Austria). Prior to each experiment requiring the fluorescence module, the AmpR calibration protocol from DatLab 7.4 was used to calibrate the fluorescence signal. Initial data analysis, including setting of marks, was performed using DatLab 7.4.
Reverse electron transfer (RET) was measured using HRR with the Oroboros O2k and DatLab 7.4. To configure the Amp channel, the light or “Fluo intensity” was set at 1000 and the amplification of signal or “Gain for Fluo sensor” at 500 and illumination in the chamber was turned “off”. To calibrate the Fluo sensors, the Instrument protocol “AmR calibration” was used. […]
Statistical analysis was performed using GraphPad Prism 9. […] RET Assay data were analyzed by 2-way ANOVA using a p-value of 0.05. […]

[2] = system: Healthy (GM08402) fibroblasts; test: RSL3 cytoprotection assay, healthy fibroblasts; assay type: cell-based, human; conditions: 1 μM RSL3, 4 hours, FIG. 8
Method: Patient fibroblasts were acquired from Coriell Institute for Medical Research (Camden, NJ, USA). GM03672 is an untransformed fibroblast cell line from a Leigh syndrome patient carrying an unknown mutation. GM08402 is an untransformed fibroblast from an apparently healthy individual. Cells were cultured at 37° C. at 5% CO2 in Eagle's Minimum Essential Medium (MEM, Corning), which was supplemented with Earle's salts and non-essential amino acids, 15% qualified fetal bovine serum, and 1% penicillin/streptomycin ([…]) to yield “Complete MEM.”
To initiate the RSL3 cytoprotection experiment, Healthy (GM08402) and Leigh syndrome (GM03672) fibroblasts were resuspended in Complete MEM. Cells were seeded at 10,000 cells per well in a clear, tissue cultured-treated, 96-well plate and incubated at 37° C. overnight. Following the incubation, supernatant was manually aspirated, taking care not to disrupt cells. […]. Luminescence units were quantified by GEN5 software on a BioTek SYNERGY neo2 plate reader (LUM filter).
RSL3 is an inhibitor of the enzyme glutathione peroxidase 4 (GPX4), which decreases lipid peroxides. RSL3 inhibition of GPX4 induces ferroptosis through iron-dependent accumulation of lipid ROS. In this assay, Healthy or Leigh fibroblasts were treated for 4 hours with RSL3 to induce ferroptosis or left untreated. Endogenous ATP levels were measured as an indicator of cellular viability using a commercially available kit (CellTiter-Glo® 2.0 Cell Viability Assay (Promega)).
[…]. […] Briefly, ferroptosis was induced with 1 μM RSL3 in healthy fibroblast cells and 375 nM RSL3 in fibroblasts from a patient with Leigh syndrome.
A preliminary experiment was performed to determine the effect of RSL3 injury on the fibroblasts of a healthy individual (cell line: GM08402) and the fibroblasts of a patient diagnosed with Leigh syndrome (cell line: GM03672).

[3] = 2 μM compound prior to addition of succinate (10 mM)

Compound | H2O2 production [1, 3] | anti-ferroptosis properties compared among test articles [2] | H2O2 production ([1]; 1 μM compound prior to addition of succinate (10 mM))
CC1=C(C)C(=O)C(CC[C@@](C)(O)COCCC[Si](C)(C)C)=C(C)C1=O [Compound 3] | statistically significant reduction | superior to Compounds 1, 4 and Vatiquinone | 
CC1=C(C)C(=O)C(CC[C@](C)(O)CCCCCCCCC(F)(F)F)=C(C)C1=O [Compound 4] | statistically significant reduction | roughly equivalent | statistically significant reduction
